# Data published in ChEMBL document CHEMBL5052832, “Inhibition of ngly1 for the treatment of cancer” (2021).
# Activity calls are given as the source filed them. No cut-off for these calls is given here.
# Assays:
# [1] = Antiproliferative activity against human HDF418 cells at 10 to 1000 uM assessed as decrease in cell viability; type: toxicity, cell-based; settings: hdf418, 1000 µM, dose 10-1000 µM
# [2] = target: T1, Peptide-N(4)-(N-acetyl-beta-glucosaminyl)asparagine amidase (Homo sapiens) (UniProt Q96IV0); assay: Inhibition of NGLY1 in human UACC-257 cells at 200 uM assessed as increase in IL-29 production measured after 48 hrs; type: cell-based
# T1 sequence (whole entry): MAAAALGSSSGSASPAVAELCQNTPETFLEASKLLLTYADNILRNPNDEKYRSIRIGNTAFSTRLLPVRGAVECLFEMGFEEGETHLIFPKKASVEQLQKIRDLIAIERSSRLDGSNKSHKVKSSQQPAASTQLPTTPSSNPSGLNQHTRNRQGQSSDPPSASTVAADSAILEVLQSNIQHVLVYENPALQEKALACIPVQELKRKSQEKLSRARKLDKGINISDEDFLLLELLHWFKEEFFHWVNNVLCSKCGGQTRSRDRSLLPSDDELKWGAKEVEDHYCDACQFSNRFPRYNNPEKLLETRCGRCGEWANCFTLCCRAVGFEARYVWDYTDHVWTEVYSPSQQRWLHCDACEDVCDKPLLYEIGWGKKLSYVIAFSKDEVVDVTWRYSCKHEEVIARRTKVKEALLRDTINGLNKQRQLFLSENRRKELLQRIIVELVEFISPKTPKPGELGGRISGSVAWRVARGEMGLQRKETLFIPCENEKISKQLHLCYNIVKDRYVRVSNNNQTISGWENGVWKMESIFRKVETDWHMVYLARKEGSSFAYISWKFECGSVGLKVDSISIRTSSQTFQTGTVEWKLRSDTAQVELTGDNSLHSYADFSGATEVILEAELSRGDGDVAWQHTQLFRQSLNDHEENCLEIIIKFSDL
# [3] = target: T1, Peptide-N(4)-(N-acetyl-beta-glucosaminyl)asparagine amidase (Homo sapiens); assay: Inhibition of NGLY1 in human UACC-257 cells at 200 uM assessed as increase in IFN-beta1 production measured after 48 hrs; type: cell-based
# [4] = target: T1, Peptide-N(4)-(N-acetyl-beta-glucosaminyl)asparagine amidase (Homo sapiens); assay: Inhibition of NGLY1 in human SK-MEL-2 cells at 200 uM assessed as increase in IFN-beta1 production measured after 48 hrs; type: cell-based
# [5] = system: UACC-257; assay: Antiproliferative activity against human UACC-257 cells at 10 to 1000 uM assessed as decrease in cell viability; type: functional, cell-based; settings: dose 10-1000 µM
# [6] = system: UACC-257; assay: Antiproliferative activity against doxycycline-induced NGLY1 knocked down human UACC-257 cells at 20 uM in presence of dacarbazine assessed as decrease in growth inhibition after 72 hrs by MTT assay; type: functional, cell-based
# [7] = target: T1, Peptide-N(4)-(N-acetyl-beta-glucosaminyl)asparagine amidase (Homo sapiens); assay: Inhibition of NGLY1 in human HDF51 cells at 200 uM assessed as increase in IFN-beta1 production measured after 48 hrs; type: cell-based
# [8] = target: T1, Peptide-N(4)-(N-acetyl-beta-glucosaminyl)asparagine amidase (Homo sapiens); assay: Inhibition of NGLY1 in human SK-MEL-2 cells at 200 uM assessed as increase in IL-29 production measured after 48 hrs; type: cell-based
# [9] = system: SK-MEL-2; assay: Antiproliferative activity against human SK-MEL-2 cells assessed as decrease in cell viability in presence of dacarbazine; type: functional, cell-based
# [10] = system: SK-MEL-2; assay: Antiproliferative activity against human SK-MEL-2 cells at 10 to 1000 uM assessed as decrease in cell viability; type: functional, cell-based; settings: dose 10-1000 µM
# [11] = target: T1, Peptide-N(4)-(N-acetyl-beta-glucosaminyl)asparagine amidase (Homo sapiens); assay: Inhibition of NGLY1 in human HDF51 cells at 200 uM assessed as increase in IL-29 production measured after 48 hrs; type: cell-based
# [12] = Antiproliferative activity against human HDF51 cells at 10 to 1000 uM assessed as decrease in cell viability; type: toxicity, cell-based; settings: hdf51, 1000 µM, dose 10-1000 µM
# [13] = target: T1, Peptide-N(4)-(N-acetyl-beta-glucosaminyl)asparagine amidase (Homo sapiens); assay: Inhibition of NGLY1 in human HEK293T cells at 200 uM assessed as retention of N-glycans on full-length NFE2L1 measured by electrophoretic mobility shift assay; type: cell-based
# [14] = system: Malme-3M; assay: Antiproliferative activity against doxycycline-induced NGLY1 knocked down human Malme-3M cells at 20 uM in presence of dacarbazine assessed as decrease in growth inhibition after 72 hrs by MTT assay; type: functional, cell-based
# [15] = system: SK-MEL-2; assay: Antiproliferative activity against human SK-MEL-2 cells assessed as decrease in cell viability in presence of bortezomib; type: functional, cell-based
Structure (SMILES),Activity [1],Activity [2],Activity [3],Activity [4],Activity [5],Activity [6],Activity [7],Activity [8],Activity [9],Activity [10],Activity [11],Activity [12],inhibition [13],Activity [14],Activity [15]
C=CC(=O)N[C@@H](CC(=O)N[C@@H]1O[C@H](COC(C)=O)[C@@H](OC(C)=O)[C@H](OC(C)=O)[C@H]1NC(C)=O)C(=O)NCCC,Non-Toxic,Active,Active,Active,Active,Active,inactive,Active,Active,Active,inactive,Non-Toxic,,,
CCCNC(=O)[C@H](CC(=O)N[C@@H]1O[C@H](COC(C)=O)[C@@H](OC(C)=O)[C@H](OC(C)=O)[C@H]1NC(C)=O)NC(=O)CCl,Non-Toxic,Active,Active,Active,Active,Active,,Active,,Active,,Non-Toxic,Active,Active,Active
CCCNC(=O)[C@H](CC(=O)N[C@@H]1O[C@H](COC(C)=O)[C@@H](OC(C)=O)[C@H](OC(C)=O)[C@H]1NC(C)=O)NC(=O)/C=C/CN(C)C,Non-Toxic,,,,Active,Active,,,,Active,,Non-Toxic,,,
C=CS(=O)(=O)N[C@@H](CC(=O)N[C@@H]1O[C@H](COC(C)=O)[C@@H](OC(C)=O)[C@H](OC(C)=O)[C@H]1NC(C)=O)C(=O)NCCC,Non-Toxic,Active,Active,Active,Active,Active,inactive,Active,,Active,inactive,Non-Toxic,,,
